Results: the supplement of paper PMC11451515

Tested on: P12-Ichikawa
Test: cell viability relative to DMSO control; higher = less cytotoxic
Conditions: 48 h
Method in brief: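 Three leukemia lines were tested: NOMO1 and SEM at 500 cells/well and P12-Ichikawa at 1000 cells/well. Each was adapted for at least four passages in each medium and seeded in 5 μl in 1536-well plates, and library compounds in DMSO were pin-dosed from 47 μM to 0.79 nM in 11 threefold steps. After 48 h at 37°C, CellTiter-Glo One luminescence was read. Viability is a percentage relative to DMSO wells on each plate, with cell-free wells as background.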

[1] = HPLM + 10% dialyzed FBS, 0.000781 µM
[2] = HPLM + 10% dialyzed FBS, 0.00234 µM
[3] = HPLM + 10% dialyzed FBS, 0.00702 µM
[4] = HPLM + 10% dialyzed FBS, 0.0211 µM
[5] = HPLM + 10% dialyzed FBS, 0.0632 µM
[6] = HPLM + 10% dialyzed FBS, 0.19 µM
[7] = HPLM + 10% dialyzed FBS, 0.569 µM
[8] = HPLM + 10% dialyzed FBS, 1.71 µM
[9] = HPLM + 10% dialyzed FBS, 5.12 µM
[10] = HPLM + 10% dialyzed FBS, 15.4 µM
[11] = HPLM + 10% dialyzed FBS, 46.1 µM
[12] = RPMI 5 mM glucose + 10% FBS, 0.000781 µM
[13] = RPMI 5 mM glucose + 10% FBS, 0.00234 µM
[14] = RPMI 5 mM glucose + 10% FBS, 0.00702 µM
[15] = RPMI 5 mM glucose + 10% FBS, 0.0211 µM
[16] = RPMI 5 mM glucose + 10% FBS, 0.0632 µM
[17] = RPMI 5 mM glucose + 10% FBS, 0.19 µM
[18] = RPMI 5 mM glucose + 10% FBS, 0.569 µM
[19] = RPMI 5 mM glucose + 10% FBS, 1.71 µM
[20] = RPMI 5 mM glucose + 10% FBS, 5.12 µM
[21] = RPMI 5 mM glucose + 10% FBS, 15.4 µM
[22] = RPMI 5 mM glucose + 10% FBS, 46.1 µM
[23] = RPMI 5 mM glucose + 10% dialyzed FBS, 0.000781 µM
[24] = RPMI 5 mM glucose + 10% dialyzed FBS, 0.00234 µM
[25] = RPMI 5 mM glucose + 10% dialyzed FBS, 0.00702 µM
[26] = RPMI 5 mM glucose + 10% dialyzed FBS, 0.0211 µM
[27] = RPMI 5 mM glucose + 10% dialyzed FBS, 0.0632 µM
[28] = RPMI 5 mM glucose + 10% dialyzed FBS, 0.19 µM
[29] = RPMI 5 mM glucose + 10% dialyzed FBS, 0.569 µM
[30] = RPMI 5 mM glucose + 10% dialyzed FBS, 1.71 µM
[31] = RPMI 5 mM glucose + 10% dialyzed FBS, 5.12 µM
[32] = RPMI 5 mM glucose + 10% dialyzed FBS, 15.4 µM
[33] = RPMI 5 mM glucose + 10% dialyzed FBS, 46.1 µM

SMILES	cell viability [1]	cell viability [2]	cell viability [3]	cell viability [4]	cell viability [5]	cell viability [6]	cell viability [7]	cell viability [8]	cell viability [9]	cell viability [10]	cell viability [11]	cell viability [12]	cell viability [13]	cell viability [14]	cell viability [15]	cell viability [16]	cell viability [17]	cell viability [18]	cell viability [19]	cell viability [20]	cell viability [21]	cell viability [22]	cell viability [23]	cell viability [24]	cell viability [25]	cell viability [26]	cell viability [27]	cell viability [28]	cell viability [29]	cell viability [30]	cell viability [31]	cell viability [32]	cell viability [33]
O=C(O)c1cc(O)c2c(c1)C(=O)c1cccc(O)c1C2=O	113%	117%	123%	117%	107%	117%	112%	110%	107%	106%	99.9%	110%	120%	113%	119%	119%	113%	109%	120%	98%	113%	102%	118%	119%	113%	114%	112%	112%	110%	108%	99.1%	108%	99.7%
C[C@H](NC(=O)Cc1cc(F)cc(F)c1)C(=O)N[C@H](C(=O)OC(C)(C)C)c1ccccc1	94%	90.9%	94.9%	94.1%	94.6%	92.5%	89%	88.3%	86.9%	88%	80.4%	92.3%	91.7%	91.2%	87%	90.7%	95.4%	89.1%	82.7%	87.9%	87.6%	92.8%	78.9%	82.5%	79.8%	79.7%	86.1%	88.8%	78.2%	86.1%	83.7%	77.4%	73.3%
c1cc(-c2cnn3cc(-c4ccc(OCCN5CCCCC5)cc4)cnc23)ccn1	90.3%	91.1%	93.8%	91.8%	97%	93.7%	91.7%	91.4%	89.6%	85.6%	2.9%	83.8%	81.9%	96.7%	86.9%	87.5%	79%	76%	84.2%	85.9%	83.2%	50.5%	89.2%	86.8%	84.1%	88.5%	86.8%	85.4%	78.8%	83.7%	78.2%	88%	85.7%
CCOC(=O)N1CCN(/[N+]([O-])=N/Oc2cc(O/N=[N+](\[O-])N3CCN(C(=O)OCC)CC3)c([N+](=O)[O-])cc2[N+](=O)[O-])CC1	122%	123%	125%	123%	131%	140%	131%	140%	136%	134%	135%	–	–	–	–	–	–	–	–	–	–	–	–	–	–	–	–	–	–	–	–	–	–
NC(=O)c1cccc(-c2cc(Nc3ccc(OC(F)(F)F)cc3)ncn2)c1	101%	96.4%	98.5%	101%	109%	104%	105%	102%	97%	99.3%	89.5%	102%	97.7%	98%	94.2%	105%	107%	105%	98.7%	91.5%	96.1%	80.3%	99.5%	85.7%	97.1%	91.9%	111%	104%	96.1%	98.8%	100%	95.8%	81.5%
C[C@]12CC[C@H]3[C@@H](CC(=C)\C4=C\C(=O)\C=C/[C@]34C)[C@@H]1CCC2=O	105%	107%	105%	107%	107%	101%	104%	103%	98%	99%	79.9%	96.3%	110%	105%	102%	108%	96.2%	102%	107%	101%	98%	63.7%	96.7%	107%	99.6%	101%	99.1%	95.2%	88.5%	103%	102%	94.5%	57.4%
OC1=CC=C(C=C1)C/2=C/C3=C(OC2)C=C(O)C=C3	109%	91.7%	111%	117%	109%	116%	104%	80.2%	19.8%	2.76%	1.12%	108%	121%	123%	110%	126%	111%	107%	88.2%	24.3%	1.45%	-0.00081%	102%	112%	111%	113%	111%	106%	102%	74.9%	16.2%	2.96%	0.54%
NCCCC(N)(C(=O)O)C(F)F (stereo not given)	116%	116%	113%	117%	118%	110%	113%	112%	108%	101%	98.4%	123%	125%	123%	121%	114%	122%	113%	113%	115%	107%	109%	114%	122%	113%	118%	113%	109%	110%	105%	105%	105%	100%
CC(=O)OC[C@@H]1O[C@H]([C@H](OC(C)=O)[C@@H]1OC(C)=O)N2\C=C/C(=O)NC2=O	119%	120%	128%	122%	114%	120%	110%	110%	113%	106%	71.8%	121%	117%	121%	116%	117%	108%	102%	113%	108%	114%	98.3%	120%	106%	116%	111%	111%	111%	111%	108%	99.7%	104%	92%
CCCCCCNC(=O)N1\C=C(F)/C(=O)NC1=O	122%	124%	123%	127%	121%	129%	126%	124%	113%	107%	89.3%	–	–	–	–	–	–	–	–	–	–	–	108%	118%	122%	122%	127%	117%	129%	121%	116%	91.8%	81.8%
CN1CCc2c(c3ccccc3n2Cc2ccc(C(=O)NO)cc2)C1	84.8%	83.9%	87.7%	89.6%	91.5%	85%	89.6%	83.6%	87.5%	68%	66.9%	81%	77.4%	78.6%	80.7%	84.1%	73.1%	79.9%	83.4%	84.2%	64.1%	56.8%	82.2%	81.3%	83.1%	78.4%	81.9%	78%	83.3%	77.8%	86.5%	63.3%	68.1%
Cc1cc(Nc2cc(N3CCN(C)CC3)nc(/C=C/c3ccccc3)n2)n[nH]1	105%	111%	115%	120%	118%	122%	116%	12.1%	5.08%	4.47%	5.23%	113%	108%	113%	117%	121%	125%	119%	41.5%	8.43%	4.4%	4.88%	107%	114%	112%	112%	121%	130%	126%	37.4%	11.6%	5.07%	5.54%
O=C(O)CCCCCC(=O)NN=C1CCCC1	96.2%	103%	99.4%	108%	110%	107%	115%	116%	111%	99.7%	73.2%	89%	103%	104%	113%	105%	112%	106%	120%	104%	112%	105%	85.4%	98.8%	103%	100%	107%	98.1%	113%	99.3%	105%	104%	109%
Cc1ccc2nc(NCCN)c3ncc(C)n3c2c1	104%	105%	106%	101%	106%	104%	103%	105%	109%	94.8%	42.5%	97.8%	111%	105%	107%	107%	108%	102%	104%	102%	97.4%	23.2%	102%	110%	104%	105%	104%	91%	101%	102%	103%	101%	33.7%
CNc1nc(-c2ccc3c(N)n[nH]c3c2)cc(N2C[C@@H](C(=O)NC3CCCCC3)CC[C@H]2C)n1	97.8%	85.9%	90.8%	95.6%	98.6%	90.8%	83.5%	76.9%	75.3%	72.3%	13.4%	76.7%	91.4%	82.5%	86.5%	78.6%	65.6%	64%	57.7%	54.9%	51%	12.8%	83.5%	86.6%	79.9%	86.5%	88.4%	69.9%	65.5%	63.5%	59.8%	52.1%	27.8%
COC1=CC=C(C=C1)/C2=C(O)/C(=O)C3=C(O)C=C(O)C(=C3O2)CC=C(C)C	115%	115%	115%	117%	121%	122%	121%	119%	113%	87.9%	122%	108%	111%	105%	110%	108%	115%	114%	120%	123%	67%	121%	118%	110%	122%	116%	127%	115%	125%	128%	117%	95.8%	118%
